Test results reported in patent US10167262B2, “Herbicidal substituted 3-arylpyrazoles” (FMC CORPORATION, priority 2014, dated 2019).

These molecules were tested on large (Lg) crabgrass (Digitaria sanguinalis) (assay: Test C pre-/postemergence greenhouse test, plant response rating 0-100). Details: Postemergence, 62 g ai/ha.
Type: in vivo
How it was run: (§1)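 Scores run from 0, no effect, to 100, complete control, assigned by eye after treated plants and controls spent 13 to 15 days in a greenhouse. Soil-applied treatment went onto freshly sown seed in loam and sand; foliar treatment hit seedlings at the 1- to 4-leaf stage.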

SMILES	Plant response rating (0 to 100), Crabgrass, Large
Cn1cc(C(=O)c2ccccc2)c(-c2cc(Br)cc(Br)c2)n1 [Compound 53]	0

Same assay, conditions: Postemergence, 125 g ai/ha

SMILES	Plant response rating (0 to 100), Crabgrass, Large
Cn1cc(C(=O)c2ccccc2)c(-c2cc(Br)cc(Br)c2)n1 [Compound 53]	0

Same assay, conditions: Postemergence, 250 g ai/ha; scale 0 to 100

SMILES	Plant response rating, Crabgrass, Large
Cn1cc(C(=O)c2ccccc2)c(-c2cc(Br)cc(Br)c2)n1 [Compound 53]	0

Same assay, conditions: Postemergence, 500 g ai/ha; scale 0 to 100

SMILES	Plant response rating, Crabgrass, Large
Cn1cc(C(=O)c2ccccc2)c(-c2cc(Br)cc(Br)c2)n1 [Compound 53]	0

Each molecule was assayed on soybean (Glycine max) in the same assay as above. Details: Postemergence, 62 g ai/ha.
Type: in vivo
How it was run: as §1

SMILES	Plant response rating (0 to 100), Soybean
Cn1cc(C(=O)c2ccccc2)c(-c2cc(Br)cc(Br)c2)n1 [Compound 53]	0

Same assay, conditions: Postemergence, 125 g ai/ha

SMILES	Plant response rating (0 to 100), Soybean
Cn1cc(C(=O)c2ccccc2)c(-c2cc(Br)cc(Br)c2)n1 [Compound 53]	0

Same assay, conditions: Postemergence, 250 g ai/ha; scale 0 to 100

SMILES	Plant response rating, Soybean
Cn1cc(C(=O)c2ccccc2)c(-c2cc(Br)cc(Br)c2)n1 [Compound 53]	0

Same assay, conditions: Postemergence, 500 g ai/ha; scale 0 to 100

SMILES	Plant response rating, Soybean
Cn1cc(C(=O)c2ccccc2)c(-c2cc(Br)cc(Br)c2)n1 [Compound 53]	5

These molecules were tested on galium (catchweed bedstraw, Galium aparine) in the same assay as above. Details: Postemergence, 62 g ai/ha.
Type: in vivo
How it was run: as §1

SMILES	Plant response rating (0 to 100), Galium
Cn1cc(C(=O)c2ccccc2)c(-c2cc(Br)cc(Br)c2)n1 [Compound 53]	0

Same assay, conditions: Postemergence, 125 g ai/ha

SMILES	Plant response rating (0 to 100), Galium
Cn1cc(C(=O)c2ccccc2)c(-c2cc(Br)cc(Br)c2)n1 [Compound 53]	0

Same assay, conditions: Postemergence, 250 g ai/ha; scale 0 to 100

SMILES	Plant response rating, Galium
Cn1cc(C(=O)c2ccccc2)c(-c2cc(Br)cc(Br)c2)n1 [Compound 53]	0

Same assay, conditions: Postemergence, 500 g ai/ha; scale 0 to 100

SMILES	Plant response rating, Galium
Cn1cc(C(=O)c2ccccc2)c(-c2cc(Br)cc(Br)c2)n1 [Compound 53]	10

Each molecule was assayed on ragweed (common ragweed, Ambrosia elatior) in the same assay as above. Details: Postemergence, 62 g ai/ha.
Type: in vivo
How it was run: as §1

SMILES	Plant response rating (0 to 100), Ragweed
Cn1cc(C(=O)c2ccccc2)c(-c2cc(Br)cc(Br)c2)n1 [Compound 53]	10

Same assay, conditions: Postemergence, 125 g ai/ha

SMILES	Plant response rating (0 to 100), Ragweed
Cn1cc(C(=O)c2ccccc2)c(-c2cc(Br)cc(Br)c2)n1 [Compound 53]	10

Same assay, conditions: Postemergence, 250 g ai/ha; scale 0 to 100

SMILES	Plant response rating, Ragweed
Cn1cc(C(=O)c2ccccc2)c(-c2cc(Br)cc(Br)c2)n1 [Compound 53]	10

Same assay, conditions: Postemergence, 500 g ai/ha; scale 0 to 100

SMILES	Plant response rating, Ragweed
Cn1cc(C(=O)c2ccccc2)c(-c2cc(Br)cc(Br)c2)n1 [Compound 53]	10

Each molecule was assayed on lambsquarters (Chenopodium album) in the same assay as above. Details: Postemergence, 125 g ai/ha.
Type: in vivo
How it was run: as §1

SMILES	Plant response rating (0 to 100), Lambsquarters
Cn1cc(C(=O)c2ccccc2)c(-c2cc(Br)cc(Br)c2)n1 [Compound 53]	30

Same assay, conditions: Postemergence, 250 g ai/ha; scale 0 to 100

SMILES	Plant response rating, Lambsquarters
Cn1cc(C(=O)c2ccccc2)c(-c2cc(Br)cc(Br)c2)n1 [Compound 53]	35

Same assay, conditions: Postemergence, 500 g ai/ha; scale 0 to 100

SMILES	Plant response rating, Lambsquarters
Cn1cc(C(=O)c2ccccc2)c(-c2cc(Br)cc(Br)c2)n1 [Compound 53]	100

The molecules below were run on velvetleaf (Abutilon theophrasti) in the same assay as above. Details: Postemergence, 62 g ai/ha.
Type: in vivo
How it was run: as §1

SMILES	Plant response rating (0 to 100), Velvetleaf
Cn1cc(C(=O)c2ccccc2)c(-c2cc(Br)cc(Br)c2)n1 [Compound 53]	60

Same assay, conditions: Postemergence, 125 g ai/ha

SMILES	Plant response rating (0 to 100), Velvetleaf
Cn1cc(C(=O)c2ccccc2)c(-c2cc(Br)cc(Br)c2)n1 [Compound 53]	75

Same assay, conditions: Postemergence, 250 g ai/ha; scale 0 to 100

SMILES	Plant response rating, Velvetleaf
Cn1cc(C(=O)c2ccccc2)c(-c2cc(Br)cc(Br)c2)n1 [Compound 53]	90

The molecules below were run on blackgrass (Alopecurus myosuroides) in the same assay as above. Details: Postemergence, 62 g ai/ha.
Type: in vivo
How it was run: as §1

SMILES	Plant response rating (0 to 100), Blackgrass
Cn1cc(C(=O)c2ccccc2)c(-c2cc(Br)cc(Br)c2)n1 [Compound 53]	0

Same assay, conditions: Postemergence, 125 g ai/ha

SMILES	Plant response rating (0 to 100), Blackgrass
Cn1cc(C(=O)c2ccccc2)c(-c2cc(Br)cc(Br)c2)n1 [Compound 53]	0

Same assay, conditions: Postemergence, 250 g ai/ha; scale 0 to 100

SMILES	Plant response rating, Blackgrass
Cn1cc(C(=O)c2ccccc2)c(-c2cc(Br)cc(Br)c2)n1 [Compound 53]	0

Same assay, conditions: Postemergence, 500 g ai/ha; scale 0 to 100

SMILES	Plant response rating, Blackgrass
Cn1cc(C(=O)c2ccccc2)c(-c2cc(Br)cc(Br)c2)n1 [Compound 53]	0

These molecules were tested on yellow nutsedge (Cyperus esculentus) in the same assay as above. Details: Postemergence, 62 g ai/ha.
Type: in vivo
How it was run: as §1

SMILES	Plant response rating (0 to 100), Nutsedge, Yellow
Cn1cc(C(=O)c2ccccc2)c(-c2cc(Br)cc(Br)c2)n1 [Compound 53]	0

Same assay, conditions: Postemergence, 125 g ai/ha

SMILES	Plant response rating (0 to 100), Nutsedge, Yellow
Cn1cc(C(=O)c2ccccc2)c(-c2cc(Br)cc(Br)c2)n1 [Compound 53]	0

Same assay, conditions: Postemergence, 250 g ai/ha; scale 0 to 100

SMILES	Plant response rating, Nutsedge, Yellow
Cn1cc(C(=O)c2ccccc2)c(-c2cc(Br)cc(Br)c2)n1 [Compound 53]	0

Same assay, conditions: Postemergence, 500 g ai/ha; scale 0 to 100

SMILES	Plant response rating, Nutsedge, Yellow
Cn1cc(C(=O)c2ccccc2)c(-c2cc(Br)cc(Br)c2)n1 [Compound 53]	0

Each molecule was assayed on pigweed (Amaranthus retroflexus) in the same assay as above. Details: Postemergence, 62 g ai/ha.
Type: in vivo
How it was run: as §1

SMILES	Plant response rating (0 to 100), Pigweed
Cn1cc(C(=O)c2ccccc2)c(-c2cc(Br)cc(Br)c2)n1 [Compound 53]	85

Same assay, conditions: Postemergence, 125 g ai/ha

SMILES	Plant response rating (0 to 100), Pigweed
Cn1cc(C(=O)c2ccccc2)c(-c2cc(Br)cc(Br)c2)n1 [Compound 53]	85

Same assay, conditions: Postemergence, 250 g ai/ha; scale 0 to 100

SMILES	Plant response rating, Pigweed
Cn1cc(C(=O)c2ccccc2)c(-c2cc(Br)cc(Br)c2)n1 [Compound 53]	90

Same assay, conditions: Postemergence, 500 g ai/ha; scale 0 to 100

SMILES	Plant response rating, Pigweed
Cn1cc(C(=O)c2ccccc2)c(-c2cc(Br)cc(Br)c2)n1 [Compound 53]	90

Each molecule was assayed on Italian ryegrass (Lolium multiflorum) in the same assay as above. Details: Postemergence, 62 g ai/ha.
Type: in vivo
How it was run: as §1

SMILES	Plant response rating (0 to 100), Ryegrass, Italian
Cn1cc(C(=O)c2ccccc2)c(-c2cc(Br)cc(Br)c2)n1 [Compound 53]	0

Same assay, conditions: Postemergence, 125 g ai/ha

SMILES	Plant response rating (0 to 100), Ryegrass, Italian
Cn1cc(C(=O)c2ccccc2)c(-c2cc(Br)cc(Br)c2)n1 [Compound 53]	0

Same assay, conditions: Postemergence, 250 g ai/ha; scale 0 to 100

SMILES	Plant response rating, Ryegrass, Italian
Cn1cc(C(=O)c2ccccc2)c(-c2cc(Br)cc(Br)c2)n1 [Compound 53]	0

Same assay, conditions: Postemergence, 500 g ai/ha; scale 0 to 100

SMILES	Plant response rating, Ryegrass, Italian
Cn1cc(C(=O)c2ccccc2)c(-c2cc(Br)cc(Br)c2)n1 [Compound 53]	0

Each molecule was assayed on corn (Zea mays) in the same assay as above. Details: Postemergence, 62 g ai/ha.
Type: in vivo
How it was run: as §1

SMILES	Plant response rating (0 to 100), Corn
Cn1cc(C(=O)c2ccccc2)c(-c2cc(Br)cc(Br)c2)n1 [Compound 53]	5

Same assay, conditions: Postemergence, 125 g ai/ha

SMILES	Plant response rating (0 to 100), Corn
Cn1cc(C(=O)c2ccccc2)c(-c2cc(Br)cc(Br)c2)n1 [Compound 53]	5

Same assay, conditions: Postemergence, 250 g ai/ha; scale 0 to 100

SMILES	Plant response rating, Corn
Cn1cc(C(=O)c2ccccc2)c(-c2cc(Br)cc(Br)c2)n1 [Compound 53]	5

Same assay, conditions: Postemergence, 500 g ai/ha; scale 0 to 100

SMILES	Plant response rating, Corn
Cn1cc(C(=O)c2ccccc2)c(-c2cc(Br)cc(Br)c2)n1 [Compound 53]	5

These molecules were tested on goosegrass (Eleusine indica) (assay: Test C postemergence greenhouse test, plant response rating 0-100). Details: 62 g ai/ha.
Type: in vivo
How it was run: (§2)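 First, plants were raised in a sphagnum peat, vermiculite and nutrient medium to 1–4 leaves. Next, formulated test compounds were applied over the foliage. Finally, after 13–15 greenhouse days, injury was compared with controls and scored 0–100.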

SMILES	Plant response rating (0 to 100), Goosegrass
Cn1cc(C(=O)c2ccccc2)c(-c2cc(Br)cc(Br)c2)n1 [Compound 53]	5

Same assay, conditions: 125 g ai/ha

SMILES	Plant response rating (0 to 100), Goosegrass
Cn1cc(C(=O)c2ccccc2)c(-c2cc(Br)cc(Br)c2)n1 [Compound 53]	5

Same assay, conditions: 250 g ai/ha, scale 0 to 100

SMILES	Plant response rating, Goosegrass
Cn1cc(C(=O)c2ccccc2)c(-c2cc(Br)cc(Br)c2)n1 [Compound 53]	5

Same assay, conditions: 500 g ai/ha, scale 0 to 100

SMILES	Plant response rating, Goosegrass
Cn1cc(C(=O)c2ccccc2)c(-c2cc(Br)cc(Br)c2)n1 [Compound 53]	5

These molecules were tested on bermudagrass (Cynodon dactylon) in the same assay as above. Details: 62 g ai/ha.
Type: in vivo
How it was run: as §2

SMILES	Plant response rating (0 to 100), Bermudagrass
Cn1cc(C(=O)c2ccccc2)c(-c2cc(Br)cc(Br)c2)n1 [Compound 53]	5

Same assay, conditions: 125 g ai/ha

SMILES	Plant response rating (0 to 100), Bermudagrass
Cn1cc(C(=O)c2ccccc2)c(-c2cc(Br)cc(Br)c2)n1 [Compound 53]	5

Same assay, conditions: 250 g ai/ha, scale 0 to 100

SMILES	Plant response rating, Bermudagrass
Cn1cc(C(=O)c2ccccc2)c(-c2cc(Br)cc(Br)c2)n1 [Compound 53]	5

Same assay, conditions: 500 g ai/ha, scale 0 to 100

SMILES	Plant response rating, Bermudagrass
Cn1cc(C(=O)c2ccccc2)c(-c2cc(Br)cc(Br)c2)n1 [Compound 53]	5
